# Data taken from patent publication US8486977B2, “1,2,3-triazole derivatives for use as stearoyl-CoA desaturase inhibitors” (GlaxoSmithKline LLC, priority 2007, dated 2013).
# Biological target: T1, SCD (Rattus norvegicus, UniProt P07308)
# T1 construct: SCD-containing rat microsomes (2 μg protein); from tissue
# T1 sequence (P07308 1-358): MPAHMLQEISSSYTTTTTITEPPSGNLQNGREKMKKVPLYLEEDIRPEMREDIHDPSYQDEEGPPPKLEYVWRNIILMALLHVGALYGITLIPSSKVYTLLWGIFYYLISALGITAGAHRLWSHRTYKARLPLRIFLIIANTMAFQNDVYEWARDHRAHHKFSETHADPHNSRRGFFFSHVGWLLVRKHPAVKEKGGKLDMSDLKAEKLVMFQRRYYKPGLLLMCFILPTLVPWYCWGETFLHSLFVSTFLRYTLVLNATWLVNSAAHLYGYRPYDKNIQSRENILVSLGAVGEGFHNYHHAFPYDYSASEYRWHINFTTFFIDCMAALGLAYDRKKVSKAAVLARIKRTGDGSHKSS
# Assay: in vitro assay for SCD activity based on production of [3H]H2O
# Assay type: biochemical
# Details: SCD-containing rat microsomes (2 μg protein), [9,10-3H] stearoyl Coenzyme A 1 μM, 6 min incubation
# Experimental: The compounds of the present invention may be analysed in vitro for SCD activity using an assay based on the production of [^3H]H2O, which is released during the enzyme-catalyzed generation of the monounsaturated fatty acyl CoA product. The assay is performed in a 96-well filtration plates. The titrated substrate used in the assay is the [9,10-^3H] stearoyl Coenzyme A. After incubation for 6 minutes of SCD-containing rat microsomes (2 μg protein) and substrate (1 μM), the labelled fatty acid acyl-CoA species and microsomes are absorbed with charcoal and separated from [^3H]H2O by centrifugation. The formation of [^3H]H2O is used as a measure of SCD activity. Compounds at concentrations starting at 10 μM to 0.1 nM or vehicle (DMSO) are preincubated for 5 minutes with the microsomes before addition of the substrate. The concentration-responses are fitted with sigmoidal curves to obtain IC50 values.
row,IC50 [µM],Structure (SMILES)
1,> 10,"Cc1c(C(=O)Nc2ccc(OCCC(C)C)cc2)nnn1Cc1ccc(-c2ccccc2)cc1 [1-(4-Biphenylylmethyl)-5-methyl-N-{4-[(3-methylbutyl)oxy]phenyl}-1H-1,2,3-triazole-4-carboxamide]"

# Test system: not given
# Assay: not given
# Details: not given
row,melting point [°C],Structure (SMILES)
1,178,"Cc1c(C(=O)Nc2ccc(F)c(CO)c2)nnn1Cc1cc(Cl)cc(Cl)c1 [Example 59, 1-[(3,5-Dichlorophenyl)methyl]-N-[4-fluoro-3-(hydroxymethyl)phenyl]-5-methyl-1H-1,2,3-triazole-4-carboxamide]"
2,148.2,"Cc1c(C(=O)Nc2cc(CO)cc(CO)c2)nnn1Cc1ccccc1 [Example 60, N-[3,5-bis(Hydroxymethyl)phenyl]-5-methyl-1-(phenylmethyl)-1H-1,2,3-triazole-4-carboxamide]"
3,192.7,"Cc1c(C(=O)Nc2cc(CO)cc(CO)c2)nnn1Cc1cccc(Cl)c1 [Example 61, -[3,5-bis(Hydroxymethyl)phenyl]-1-[(3-chlorophenyl)methyl]-5-methyl-1H-1,2,3-triazole-4-carboxamide]"
4,142,"Cc1c(C(=O)Nc2cccc(CCO)c2)nnn1Cc1ccc(Cl)c(Cl)c1 [Example 62, 1-[(3,4-Dichlorophenyl)methyl]-N-[3-(2-hydroxyethyl)phenyl]-5-methyl-1H-1,2,3-triazole-4-carboxamide]"
5,267.6,"Cc1c(C(=O)Nc2cccc(C(=O)O)c2)nnn1Cc1ccc(Cl)c(Cl)c1 [Example 63, 3-[({1-[(3,4-Dichlorophenyl)methyl]-5-methyl-1H-1,2,3-triazol-4-yl}carbonyl)amino]benzoic acid]"
6,243.9,"COc1ccc(C(=O)O)cc1NC(=O)c1nnn(Cc2ccc(Cl)c(Cl)c2)c1C [Example 64, 3-[({1-[(3,4-Dichlorophenyl)methyl]-5-methyl-1H-1,2,3-triazol-4-yl}carbonyl)amino]-4-(methyloxy)benzoic acid]"
7,307.2,"Cc1c(C(=O)Nc2cc(C(=O)O)cc(C(=O)O)c2)nnn1Cc1ccccc1 [Example 65, 5-({[5-Methyl-1-(phenylmethyl)-1H-1,2,3-triazol-4-yl]carbonyl}amino)-1,3-benzenedicarboxylic acid]"
8,> 260,"Cc1c(C(=O)Nc2ccc(C(=O)O)cc2)nnn1Cc1ccc(Cl)c(Cl)c1 [Example 66, 4-[({1-[(3,4-Dichlorophenyl)methyl]-5-methyl-1H-1,2,3-triazol-4-yl}carbonyl)amino]benzoic acid]"
9,192.2,"CCNC(=O)c1cccc(NC(=O)c2nnn(Cc3ccc(Cl)c(Cl)c3)c2C)c1 [Example 67, 1-[(3,4-Dichlorophenyl)methyl]-N-{3-[(ethylamino)carbonyl]phenyl}-5-methyl-1H-1,2,3-triazole-4-carboxamide]"
10,190.7,"Cc1c(C(=O)Nc2cccc(C(=O)NCCO)c2)nnn1Cc1ccc(Cl)c(Cl)c1 [Example 68, 1-[(3,4-Dichlorophenyl)methyl]-N-(3-{[(2-hydroxyethyl)amino]carbonyl}phenyl)-5-methyl-1H-1,2,3-triazole-4-carboxamide]"
11,222.2,"CNC(=O)c1ccc(OC)c(NC(=O)c2nnn(Cc3ccc(Cl)c(Cl)c3)c2C)c1 [Example 69, 1-[(3,4-Dichlorophenyl)methyl]-5-methyl-N-[5-[(methylamino)carbonyl]-2-(methyloxy)phenyl]-1H-1,2,3-triazole-4-carboxamide]"
12,> 70,"CC(=O)OCc1cccc(NC(=O)c2nnn(Cc3ccc(Cl)c(Cl)c3)c2C)c1 [Example 70, {3-[({1-[(3,4-Dichlorophenyl)methyl]-5-methyl-1H-1,2,3-triazol-4-yl}carbonyl)amino]phenyl}methyl acetate]"
13,140,"Cc1c(C(=O)Nc2ccc(OCCO)cc2)nnn1Cc1ccc(Cl)c(Cl)c1 [Example 74, 1-[(3,4-Dichlorophenyl)methyl]-N-{4-[(2-hydroxyethyl)oxy]phenyl}-5-methyl-1H-1,2,3-triazole-4-carboxamide]"
14,58,"Cc1c(C(=O)Nc2cccc(C(C)(C)O)c2)nnn1Cc1ccc(Cl)c(Cl)c1 [Example 76, 1-[(3,4-Dichlorophenyl)methyl]-N-[3-(1-hydroxy-1-methylethyl)phenyl]-5-methyl-1H-1,2,3-triazole-4-carboxamide]"
15,163.1,"Cc1c(C(=O)Nc2ccc(OCCN(C)C)c(CO)c2)nnn1Cc1ccc(Cl)c(Cl)c1 [Example 77, 1-[(3,4-Dichlorophenyl)methyl]-N-[4-{[2-(dimethylamino)ethyl]oxy}-3-(hydroxymethyl)phenyl]-5-methyl-1H-1,2,3-triazole-4-carboxamide]"
16,144.9,"Cc1c(C(=O)Nc2cccc(OCCO)c2)nnn1Cc1ccc(Cl)c(Cl)c1 [Example 78, 1-[(3,4-Dichlorophenyl)methyl]-N-{3-[(2-hydroxyethyl)oxy]phenyl}-5-methyl-1H-1,2,3-triazole-4-carboxamide]"

row,melting point [°C],Structure (SMILES)
1,120,"Cc1c(CNc2cc(CO)cc(CO)c2)nnn1Cc1ccc(Cl)c(Cl)c1 [Example 79, {5-[({1-[(3,4-Dichlorophenyl)methyl]-5-methyl-1H-1,2,3-triazol-4-yl}methyl)amino]benzene-1,3-diyl}dimethanol]"
2,171.4,"Cc1c(C(=O)Nc2ccc(CO)c(CO)c2)nnn1Cc1ccccc1 [Example 80, N-[3,4-bis(Hydroxymethyl)phenyl]-5-methyl-1-(phenylmethyl)-1H-1,2,3-triazole-4-carboxamide]"
3,180.3,"Cc1c(C(=O)Nc2cc(CO)cc(CO)c2)nnn1Cc1ccc(F)cc1 [Example 81, N-[3,5-bis(Hydroxymethyl)phenyl]-1-[(4-fluorophenyl)methyl]-5-methyl-1H-1,2,3-triazole-4-carboxamide]"
4,157,"Cc1c(C(=O)Nc2ccc(CO)c(CO)c2)nnn1Cc1cccc(Cl)c1 [Example 82, N-[3,4-bis(Hydroxymethyl)phenyl]-1-[(3-chlorophenyl)methyl]-5-methyl-1H-1,2,3-triazole-4-carboxamide]"
5,175.5,"Cc1c(C(=O)Nc2ccc(CO)c(CO)c2)nnn1Cc1ccc(F)cc1 [Example 83, N-[3,4-bis(Hydroxymethyl)phenyl]-1-[(4-fluorophenyl)methyl]-5-methyl-1H-1,2,3-triazole-4-carboxamide]"
6,173.1,"Cc1c(C(=O)Nc2cc(CO)cc(CO)c2)nnn1Cc1cccc(F)c1 [Example 84, N-[3,5-bis(Hydroxymethyl)phenyl]-1-[(3-fluorophenyl)methyl]-5-methyl-1H-1,2,3-triazole-4-carboxamide]"
7,157.2,"Cc1c(C(=O)Nc2ccc(CO)c(CO)c2)nnn1Cc1cccc(F)c1 [Example 85, N-[3,4-bis(Hydroxymethyl)phenyl]-1-[(3-fluorophenyl)methyl]-5-methyl-1H-1,2,3-triazole-4-carboxamide]"
8,151.9,"Cc1c(C(=O)Nc2cccc(CO)c2)nnn1Cc1cccc(Cl)c1 [Example 86, 1-[(3-Chlorophenyl)methyl]-N-[3-(hydroxymethyl)phenyl]-5-methyl-1H-1,2,3-triazole-4-carboxamide]"
9,142.1,"Cc1c(C(=O)Nc2cccc(CO)c2)nnn1Cc1ccc(F)cc1 [Example 87, 1-[(4-Fluorophenyl)methyl]-N-[3-(hydroxymethyl)phenyl]-5-methyl-1H-1,2,3-triazole-4-carboxamide]"
10,136.2,"Cc1c(C(=O)Nc2ccc(CO)cc2)nnn1Cc1cccc(Cl)c1 [Example 88, 1-[(3-Chlorophenyl)methyl]-N-[4-(hydroxymethyl)phenyl]-5-methyl-1H-1,2,3-triazole-4-carboxamide]"
11,124.7,"Cc1c(C(=O)Nc2cccc(CO)c2)nnn1Cc1cccc(F)c1 [Example 89, 1-[(3-Fluorophenyl)methyl]-N-[3-(hydroxymethyl)phenyl]-5-methyl-1H-1,2,3-triazole-4-carboxamide]"
12,145.6,"Cc1c(C(=O)Nc2ccc(CO)cc2)nnn1Cc1ccc(F)cc1 [Example 90, 1-[(4-Fluorophenyl)methyl]-N-[4-(hydroxymethyl)phenyl]-5-methyl-1H-1,2,3-triazole-4-carboxamide]"
13,134.3,"Cc1c(C(=O)Nc2ccc(CO)cc2)nnn1Cc1cccc(F)c1 [Example 91, 1-[(3-Fluorophenyl)methyl]-N-[4-(hydroxymethyl)phenyl]-5-methyl-1H-1,2,3-triazole-4-carboxamide]"
14,223 to 225,"CNC(=O)c1cc(CO)cc(NC(=O)c2nnn(Cc3ccc(Cl)c(Cl)c3)c2C)c1 [Example 92, 1-[(3,4-Dichlorophenyl)methyl]-N-{3-(hydroxymethyl)-5-[(methylamino)carbonyl]phenyl}-5-methyl-1H-1,2,3-triazole-4-carboxamide]"
15,160,"Cc1c(NC(=O)c2ccc(CO)cc2)nnn1Cc1ccc(Cl)c(Cl)c1 [Example 93, N-{1-[(3,4-Dichlorophenyl)methyl]-5-methyl-1H-1,2,3-triazol-4-yl}-4-(hydroxymethyl)benzamide]"
